ChEMBL document CHEMBL5233266, “β-Carboline as a Privileged Scaffold for Multitarget Strategies in Alzheimer's Disease Therapy” (J Med Chem, 2021)
Each block holds one compound with its values, some of them ahead of it.

Columns and labels:
[1] = target: cGMP-specific 3',5'-cyclic phosphodiesterase (Homo sapiens, UniProt O76074); experiment: Inhibition of PDE5 (unknown origin)
Histone deacetylase 1 = Histone deacetylase 1 (Homo sapiens, UniProt Q13547); experiment: Inhibition of HDAC1 (unknown origin)
Histone deacetylase 2 = Histone deacetylase 2 (Homo sapiens, UniProt Q92769); experiment: Inhibition of HDAC2 (unknown origin)
[2] = target: T1, Protein deacetylase HDAC6 (Homo sapiens, UniProt Q9UBN7); experiment: Inhibition of HDAC6 (unknown origin)
T1 sequence (Q9UBN7 whole entry): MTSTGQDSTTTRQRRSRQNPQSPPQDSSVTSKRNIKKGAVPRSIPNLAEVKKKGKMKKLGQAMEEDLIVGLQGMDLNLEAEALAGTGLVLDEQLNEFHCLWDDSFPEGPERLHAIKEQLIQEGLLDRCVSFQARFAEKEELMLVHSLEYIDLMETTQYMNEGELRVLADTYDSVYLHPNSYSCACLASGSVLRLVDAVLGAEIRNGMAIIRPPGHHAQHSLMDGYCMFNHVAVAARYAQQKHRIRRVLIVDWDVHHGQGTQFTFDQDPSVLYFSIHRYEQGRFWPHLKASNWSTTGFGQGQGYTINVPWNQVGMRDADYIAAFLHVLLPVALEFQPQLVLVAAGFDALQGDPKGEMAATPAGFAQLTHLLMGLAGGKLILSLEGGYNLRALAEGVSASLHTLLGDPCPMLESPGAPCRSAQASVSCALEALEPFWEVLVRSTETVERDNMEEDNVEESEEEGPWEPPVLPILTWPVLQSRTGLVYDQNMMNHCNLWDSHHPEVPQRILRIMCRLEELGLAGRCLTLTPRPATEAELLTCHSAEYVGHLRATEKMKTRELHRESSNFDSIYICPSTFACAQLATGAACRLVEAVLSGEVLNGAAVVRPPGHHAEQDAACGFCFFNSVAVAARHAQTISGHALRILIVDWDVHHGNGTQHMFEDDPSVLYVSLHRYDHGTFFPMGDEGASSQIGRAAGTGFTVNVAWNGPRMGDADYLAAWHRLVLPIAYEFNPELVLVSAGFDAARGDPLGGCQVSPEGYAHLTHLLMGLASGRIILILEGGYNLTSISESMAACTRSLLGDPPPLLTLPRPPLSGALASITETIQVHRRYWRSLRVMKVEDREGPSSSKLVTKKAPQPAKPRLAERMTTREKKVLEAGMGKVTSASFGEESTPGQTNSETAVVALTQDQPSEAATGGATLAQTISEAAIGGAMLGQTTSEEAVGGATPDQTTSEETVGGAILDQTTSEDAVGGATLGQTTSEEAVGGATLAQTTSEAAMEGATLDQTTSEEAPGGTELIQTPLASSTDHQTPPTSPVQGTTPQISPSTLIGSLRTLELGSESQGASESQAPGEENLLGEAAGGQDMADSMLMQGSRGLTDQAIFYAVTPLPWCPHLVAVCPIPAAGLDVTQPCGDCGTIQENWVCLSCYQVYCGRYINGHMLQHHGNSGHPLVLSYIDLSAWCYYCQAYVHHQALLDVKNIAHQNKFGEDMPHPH

Beta-secretase 1 = Beta-secretase 1 (Homo sapiens, UniProt P56817); experiment: Inhibition of BACE1 (unknown origin) expressed in HEK293 cells by FRET assay; format: cell-based
[3] = target: 5-hydroxytryptamine receptor 2A (Rattus norvegicus, UniProt P14842); experiment: Displacement of [3H]-ketanserin from rat 5-HT2A expressed in mouse NIH/3T3 cells assessed as inhibition constant by Cheng-Prusoff equation analysis; format: cell-based
[4] = target: 5-hydroxytryptamine receptor 2C (Rattus norvegicus, UniProt P08909); experiment: Displacement of [3H]-ketanserin from rat 5-HT2C expressed in mouse NIH/3T3 cells assessed as inhibition constant by Cheng-Prusoff equation analysis; format: cell-based
[5] = target: 5-hydroxytryptamine receptor 2B (Rattus norvegicus, UniProt P30994); experiment: Displacement of [3H]-ketanserin from rat 5-HT2B expressed in mouse NIH/3T3 cells assessed as inhibition constant by Cheng-Prusoff equation analysis; format: cell-based
[6] = target: 5-hydroxytryptamine receptor 2B (Homo sapiens, UniProt P41595); experiment: Binding affinity to 5-HT2B (unknown origin) assessed as equilibrium binding constant
[7] = target: 5-hydroxytryptamine receptor 1A (Homo sapiens, UniProt P08908); experiment: Displacement of […] from human 5-HT1A expressed in human HEK cells assessed as inhibition constant by FLIPR assay; format: cell-based
[8] = target: 5-hydroxytryptamine receptor 2A (Homo sapiens, UniProt P28223); experiment: Displacement of [3H]-LSD from human 5-HT2A expressed in human HEK cells assessed as inhibition constant by FLIPR assay; format: cell-based
[9] = target: T2, 5-hydroxytryptamine receptor 3A (Homo sapiens, UniProt P46098); experiment: Binding affinity to 5-HT3R (unknown origin) assessed as inhibition constant
T2 sequence (P46098 whole entry): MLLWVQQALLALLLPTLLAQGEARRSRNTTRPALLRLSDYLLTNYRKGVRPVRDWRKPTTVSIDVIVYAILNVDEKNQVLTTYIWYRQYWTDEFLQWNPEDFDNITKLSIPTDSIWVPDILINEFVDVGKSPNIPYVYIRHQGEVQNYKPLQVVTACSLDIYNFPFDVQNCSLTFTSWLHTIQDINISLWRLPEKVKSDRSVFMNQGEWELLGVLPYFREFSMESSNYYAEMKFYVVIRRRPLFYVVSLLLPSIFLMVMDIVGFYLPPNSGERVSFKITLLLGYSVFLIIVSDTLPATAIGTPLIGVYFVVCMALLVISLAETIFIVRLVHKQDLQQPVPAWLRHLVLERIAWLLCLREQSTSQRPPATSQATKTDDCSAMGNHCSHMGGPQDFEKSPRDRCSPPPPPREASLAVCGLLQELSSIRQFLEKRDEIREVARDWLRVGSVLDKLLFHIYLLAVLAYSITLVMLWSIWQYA

[10] = target: T3, Gamma-aminobutyric acid receptor subunit alpha-1 (Homo sapiens, UniProt P14867); experiment: Binding affinity to human recombinant GABAA alpha1 receptor assessed as inhibition constant incubated for 1 hrs by liquid scintillation counting analysis
T3 sequence (P14867 whole entry): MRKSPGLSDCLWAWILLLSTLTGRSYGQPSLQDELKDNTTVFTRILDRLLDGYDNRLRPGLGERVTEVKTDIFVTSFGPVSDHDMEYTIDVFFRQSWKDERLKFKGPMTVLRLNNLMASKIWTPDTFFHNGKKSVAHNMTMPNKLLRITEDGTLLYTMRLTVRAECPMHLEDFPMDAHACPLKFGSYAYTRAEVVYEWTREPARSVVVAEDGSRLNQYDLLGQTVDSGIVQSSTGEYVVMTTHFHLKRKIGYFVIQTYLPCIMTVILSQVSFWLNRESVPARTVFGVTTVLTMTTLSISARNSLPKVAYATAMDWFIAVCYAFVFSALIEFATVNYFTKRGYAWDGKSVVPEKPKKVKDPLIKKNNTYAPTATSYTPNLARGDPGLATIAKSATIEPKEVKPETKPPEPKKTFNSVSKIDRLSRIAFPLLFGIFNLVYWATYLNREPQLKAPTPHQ

[11] = target: T4, Gamma-aminobutyric acid receptor subunit alpha-2 (Homo sapiens, UniProt P47869); experiment: Binding affinity to human recombinant GABAA alpha2 receptor assessed as inhibition constant incubated for 1 hrs by liquid scintillation counting analysis
T4 sequence (P47869 whole entry): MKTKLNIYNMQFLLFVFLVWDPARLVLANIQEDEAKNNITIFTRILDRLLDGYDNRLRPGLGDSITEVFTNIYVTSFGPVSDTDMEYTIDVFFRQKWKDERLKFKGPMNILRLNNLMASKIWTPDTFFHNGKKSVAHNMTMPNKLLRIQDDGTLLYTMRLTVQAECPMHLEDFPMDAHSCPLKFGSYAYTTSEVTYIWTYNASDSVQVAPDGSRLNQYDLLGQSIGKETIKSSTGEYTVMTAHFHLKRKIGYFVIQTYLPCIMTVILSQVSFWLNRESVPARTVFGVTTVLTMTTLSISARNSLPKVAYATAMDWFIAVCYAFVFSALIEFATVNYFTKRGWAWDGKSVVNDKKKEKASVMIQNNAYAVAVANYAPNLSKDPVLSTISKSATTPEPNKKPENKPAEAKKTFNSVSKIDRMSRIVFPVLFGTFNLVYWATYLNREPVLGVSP

[12] = target: T5, Gamma-aminobutyric acid receptor subunit alpha-3 (Homo sapiens, UniProt P34903); experiment: Binding affinity to human recombinant GABAA alpha3 receptor assessed as inhibition constant incubated for 1 hrs by liquid scintillation counting analysis
T5 sequence (P34903 whole entry): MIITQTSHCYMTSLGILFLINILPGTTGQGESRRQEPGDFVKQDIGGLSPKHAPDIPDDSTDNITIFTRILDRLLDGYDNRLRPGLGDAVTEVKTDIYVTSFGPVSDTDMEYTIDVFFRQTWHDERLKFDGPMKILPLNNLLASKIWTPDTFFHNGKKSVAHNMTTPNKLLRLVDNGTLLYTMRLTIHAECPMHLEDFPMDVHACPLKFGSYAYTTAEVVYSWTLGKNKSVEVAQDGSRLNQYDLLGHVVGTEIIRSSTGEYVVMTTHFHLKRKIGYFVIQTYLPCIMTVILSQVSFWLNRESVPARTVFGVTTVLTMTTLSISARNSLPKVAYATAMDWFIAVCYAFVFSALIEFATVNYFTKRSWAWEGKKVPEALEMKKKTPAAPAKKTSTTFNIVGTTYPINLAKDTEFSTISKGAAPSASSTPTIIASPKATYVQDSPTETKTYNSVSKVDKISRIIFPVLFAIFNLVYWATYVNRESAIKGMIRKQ

[13] = target: T6, Gamma-aminobutyric acid receptor subunit alpha-5 (Homo sapiens, UniProt P31644); experiment: Binding affinity to human recombinant GABAA alpha5 receptor assessed as inhibition constant incubated for 1 hrs by liquid scintillation counting analysis
T6 sequence (P31644 whole entry): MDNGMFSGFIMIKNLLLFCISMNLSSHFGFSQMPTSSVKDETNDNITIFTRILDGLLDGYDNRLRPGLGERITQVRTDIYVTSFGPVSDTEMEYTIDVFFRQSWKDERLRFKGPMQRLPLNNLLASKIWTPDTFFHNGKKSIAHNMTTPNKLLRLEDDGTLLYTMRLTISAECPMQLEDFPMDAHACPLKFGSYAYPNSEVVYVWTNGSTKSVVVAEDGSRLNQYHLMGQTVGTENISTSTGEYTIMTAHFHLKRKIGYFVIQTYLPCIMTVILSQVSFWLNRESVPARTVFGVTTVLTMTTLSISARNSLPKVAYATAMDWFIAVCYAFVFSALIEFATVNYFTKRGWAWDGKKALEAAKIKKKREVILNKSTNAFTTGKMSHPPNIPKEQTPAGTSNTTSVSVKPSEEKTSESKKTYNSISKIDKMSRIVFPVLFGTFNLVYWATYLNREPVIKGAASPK

[14] = target: T7, Gamma-aminobutyric acid receptor subunit alpha-6 (Homo sapiens, UniProt Q16445); experiment: Binding affinity to human recombinant GABAA alpha6 receptor assessed as inhibition constant incubated for 1 hrs by liquid scintillation counting analysis
[15] = target: T3, Gamma-aminobutyric acid receptor subunit alpha-1; experiment: Inhibition of GABAA alpha1 receptor (unknown origin)
[16] = target: T4, Gamma-aminobutyric acid receptor subunit alpha-2; experiment: Inhibition of GABAA alpha2 receptor (unknown origin)
[17] = target: T5, Gamma-aminobutyric acid receptor subunit alpha-3; experiment: Inhibition of GABAA alpha3 receptor (unknown origin)
[18] = target: T6, Gamma-aminobutyric acid receptor subunit alpha-5; experiment: Inhibition of GABAA alpha5 receptor (unknown origin)
[19] = target: T7, Gamma-aminobutyric acid receptor subunit alpha-6; experiment: Binding affinity to GABAA alpha6 receptor (unknown origin) assessed as inhibition constant
[20] = target: GABA-A receptor; anion channel; experiment: Displacement of [3H]flunitrazepam from GABAA (unknown origin ) receptor by radioligand binding assay; format: protein-complex assay, Homo sapiens

T7 sequence (Q16445 whole entry): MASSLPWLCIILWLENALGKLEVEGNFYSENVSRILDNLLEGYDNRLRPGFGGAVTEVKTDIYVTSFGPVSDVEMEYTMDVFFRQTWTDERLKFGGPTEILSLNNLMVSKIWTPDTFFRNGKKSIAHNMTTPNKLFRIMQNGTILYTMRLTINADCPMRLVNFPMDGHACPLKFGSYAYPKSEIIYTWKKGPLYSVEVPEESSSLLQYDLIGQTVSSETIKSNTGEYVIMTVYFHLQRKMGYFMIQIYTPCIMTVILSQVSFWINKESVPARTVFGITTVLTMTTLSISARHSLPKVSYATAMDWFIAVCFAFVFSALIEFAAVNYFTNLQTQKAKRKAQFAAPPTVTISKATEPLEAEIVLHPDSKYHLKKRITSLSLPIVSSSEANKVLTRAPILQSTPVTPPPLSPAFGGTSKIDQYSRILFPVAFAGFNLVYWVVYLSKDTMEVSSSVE
Chain of 5-hydroxytryptamine receptor 2C (P08909 whole entry): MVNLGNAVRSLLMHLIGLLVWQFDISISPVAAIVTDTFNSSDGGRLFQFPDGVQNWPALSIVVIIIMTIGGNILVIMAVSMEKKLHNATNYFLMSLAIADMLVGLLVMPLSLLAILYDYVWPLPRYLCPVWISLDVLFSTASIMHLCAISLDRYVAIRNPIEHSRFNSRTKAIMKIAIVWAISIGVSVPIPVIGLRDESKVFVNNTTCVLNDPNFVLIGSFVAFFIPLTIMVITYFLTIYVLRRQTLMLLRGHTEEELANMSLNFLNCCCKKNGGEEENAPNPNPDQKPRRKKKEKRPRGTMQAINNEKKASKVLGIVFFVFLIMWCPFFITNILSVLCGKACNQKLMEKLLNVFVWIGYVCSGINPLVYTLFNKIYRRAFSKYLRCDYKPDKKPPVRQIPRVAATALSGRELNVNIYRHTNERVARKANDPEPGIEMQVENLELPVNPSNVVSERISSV
Chain of 5-hydroxytryptamine receptor 2B (Homo sapiens, UniProt P41595) (P41595 whole entry): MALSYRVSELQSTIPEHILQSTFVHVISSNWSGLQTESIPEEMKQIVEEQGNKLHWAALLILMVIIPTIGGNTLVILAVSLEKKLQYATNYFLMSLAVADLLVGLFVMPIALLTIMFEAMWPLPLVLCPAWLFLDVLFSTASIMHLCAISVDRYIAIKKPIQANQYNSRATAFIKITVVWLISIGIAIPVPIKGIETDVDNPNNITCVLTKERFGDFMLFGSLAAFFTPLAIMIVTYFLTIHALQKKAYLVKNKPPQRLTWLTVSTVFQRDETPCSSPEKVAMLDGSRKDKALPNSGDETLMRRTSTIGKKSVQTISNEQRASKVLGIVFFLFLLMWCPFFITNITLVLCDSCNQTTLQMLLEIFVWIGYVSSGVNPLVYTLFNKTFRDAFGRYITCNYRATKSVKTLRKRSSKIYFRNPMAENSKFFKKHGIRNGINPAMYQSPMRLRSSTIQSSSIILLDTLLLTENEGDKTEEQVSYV
Chain of 5-hydroxytryptamine receptor 2B (Rattus norvegicus, UniProt P30994) (P30994 whole entry): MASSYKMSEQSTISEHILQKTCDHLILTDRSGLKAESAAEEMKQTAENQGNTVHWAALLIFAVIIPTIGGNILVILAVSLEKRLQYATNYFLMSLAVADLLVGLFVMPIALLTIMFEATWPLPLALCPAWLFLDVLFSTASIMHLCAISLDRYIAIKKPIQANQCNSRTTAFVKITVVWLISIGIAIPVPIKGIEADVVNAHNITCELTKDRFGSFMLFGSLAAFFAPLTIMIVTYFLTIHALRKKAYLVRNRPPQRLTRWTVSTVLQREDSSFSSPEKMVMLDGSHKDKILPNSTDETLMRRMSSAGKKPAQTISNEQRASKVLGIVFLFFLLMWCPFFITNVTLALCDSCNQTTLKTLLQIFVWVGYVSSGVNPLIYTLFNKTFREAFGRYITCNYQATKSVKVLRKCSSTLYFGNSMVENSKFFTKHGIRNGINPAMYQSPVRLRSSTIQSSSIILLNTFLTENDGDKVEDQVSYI
Chain of Histone deacetylase 1 (Q13547 whole entry): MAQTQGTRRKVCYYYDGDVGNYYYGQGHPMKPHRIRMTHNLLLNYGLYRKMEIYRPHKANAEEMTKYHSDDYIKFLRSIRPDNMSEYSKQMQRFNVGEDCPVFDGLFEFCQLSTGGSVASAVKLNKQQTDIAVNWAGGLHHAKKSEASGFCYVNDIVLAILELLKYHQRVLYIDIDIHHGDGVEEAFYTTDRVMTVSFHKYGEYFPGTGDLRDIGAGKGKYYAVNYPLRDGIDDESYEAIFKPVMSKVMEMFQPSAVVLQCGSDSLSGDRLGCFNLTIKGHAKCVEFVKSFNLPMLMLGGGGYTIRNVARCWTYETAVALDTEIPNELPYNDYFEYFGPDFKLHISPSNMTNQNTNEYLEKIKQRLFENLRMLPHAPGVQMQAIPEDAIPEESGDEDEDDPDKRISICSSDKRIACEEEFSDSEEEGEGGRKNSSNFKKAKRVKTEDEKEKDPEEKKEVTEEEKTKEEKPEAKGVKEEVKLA
Chain of 5-hydroxytryptamine receptor 2A (Rattus norvegicus, UniProt P14842) (P14842 whole entry): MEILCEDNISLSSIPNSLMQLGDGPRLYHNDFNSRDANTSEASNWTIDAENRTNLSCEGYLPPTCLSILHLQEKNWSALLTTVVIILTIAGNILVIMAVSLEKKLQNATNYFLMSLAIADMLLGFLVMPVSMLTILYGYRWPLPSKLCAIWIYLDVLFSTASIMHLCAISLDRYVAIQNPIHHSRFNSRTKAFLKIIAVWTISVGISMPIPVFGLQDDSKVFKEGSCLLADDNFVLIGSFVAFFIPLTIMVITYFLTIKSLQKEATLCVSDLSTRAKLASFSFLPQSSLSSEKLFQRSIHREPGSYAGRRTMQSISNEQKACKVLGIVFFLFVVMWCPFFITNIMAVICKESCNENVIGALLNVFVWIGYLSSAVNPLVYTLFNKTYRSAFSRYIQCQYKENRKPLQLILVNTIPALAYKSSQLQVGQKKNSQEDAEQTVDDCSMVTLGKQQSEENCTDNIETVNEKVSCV
Chain of Histone deacetylase 2 (Q92769 whole entry): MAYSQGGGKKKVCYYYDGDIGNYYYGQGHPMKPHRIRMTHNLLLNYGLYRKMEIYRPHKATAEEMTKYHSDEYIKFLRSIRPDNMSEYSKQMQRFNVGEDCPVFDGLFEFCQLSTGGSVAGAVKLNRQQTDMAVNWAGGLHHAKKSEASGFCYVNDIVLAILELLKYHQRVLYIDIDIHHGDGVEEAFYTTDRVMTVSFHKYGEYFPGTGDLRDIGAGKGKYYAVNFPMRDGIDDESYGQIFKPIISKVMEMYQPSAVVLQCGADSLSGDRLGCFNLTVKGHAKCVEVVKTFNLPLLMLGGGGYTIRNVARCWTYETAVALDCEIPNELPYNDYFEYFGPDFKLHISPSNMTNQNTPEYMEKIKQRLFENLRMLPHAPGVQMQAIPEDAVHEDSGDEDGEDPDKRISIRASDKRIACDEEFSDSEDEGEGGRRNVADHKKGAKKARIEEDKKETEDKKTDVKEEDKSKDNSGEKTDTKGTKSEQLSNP
Chain of Beta-secretase 1 (P56817 whole entry): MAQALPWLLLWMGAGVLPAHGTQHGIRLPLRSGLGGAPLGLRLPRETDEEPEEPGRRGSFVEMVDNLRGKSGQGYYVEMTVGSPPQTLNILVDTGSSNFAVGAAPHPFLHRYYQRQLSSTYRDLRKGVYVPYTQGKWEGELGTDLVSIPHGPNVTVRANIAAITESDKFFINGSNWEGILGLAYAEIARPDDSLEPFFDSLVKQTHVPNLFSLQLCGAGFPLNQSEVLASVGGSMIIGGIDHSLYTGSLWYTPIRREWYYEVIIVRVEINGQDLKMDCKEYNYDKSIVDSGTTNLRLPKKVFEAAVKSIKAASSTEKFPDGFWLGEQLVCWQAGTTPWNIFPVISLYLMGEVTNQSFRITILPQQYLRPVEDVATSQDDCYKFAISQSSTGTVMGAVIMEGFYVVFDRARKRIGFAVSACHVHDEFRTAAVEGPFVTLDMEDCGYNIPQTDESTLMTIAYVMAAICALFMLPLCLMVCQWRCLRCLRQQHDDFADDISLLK
Chain of 5-hydroxytryptamine receptor 1A (P08908 whole entry): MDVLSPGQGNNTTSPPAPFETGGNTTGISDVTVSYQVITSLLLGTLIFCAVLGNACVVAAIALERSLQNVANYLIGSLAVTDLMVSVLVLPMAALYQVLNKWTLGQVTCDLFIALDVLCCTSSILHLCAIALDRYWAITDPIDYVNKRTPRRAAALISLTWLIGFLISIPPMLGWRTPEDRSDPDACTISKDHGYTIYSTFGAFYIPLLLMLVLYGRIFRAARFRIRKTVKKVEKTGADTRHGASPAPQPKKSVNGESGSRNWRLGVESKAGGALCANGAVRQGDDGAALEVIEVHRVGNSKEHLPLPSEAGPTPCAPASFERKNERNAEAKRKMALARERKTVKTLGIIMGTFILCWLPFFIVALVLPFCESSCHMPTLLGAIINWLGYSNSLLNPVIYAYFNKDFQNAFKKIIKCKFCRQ
Chain of 5-hydroxytryptamine receptor 2A (Homo sapiens, UniProt P28223) (P28223 whole entry): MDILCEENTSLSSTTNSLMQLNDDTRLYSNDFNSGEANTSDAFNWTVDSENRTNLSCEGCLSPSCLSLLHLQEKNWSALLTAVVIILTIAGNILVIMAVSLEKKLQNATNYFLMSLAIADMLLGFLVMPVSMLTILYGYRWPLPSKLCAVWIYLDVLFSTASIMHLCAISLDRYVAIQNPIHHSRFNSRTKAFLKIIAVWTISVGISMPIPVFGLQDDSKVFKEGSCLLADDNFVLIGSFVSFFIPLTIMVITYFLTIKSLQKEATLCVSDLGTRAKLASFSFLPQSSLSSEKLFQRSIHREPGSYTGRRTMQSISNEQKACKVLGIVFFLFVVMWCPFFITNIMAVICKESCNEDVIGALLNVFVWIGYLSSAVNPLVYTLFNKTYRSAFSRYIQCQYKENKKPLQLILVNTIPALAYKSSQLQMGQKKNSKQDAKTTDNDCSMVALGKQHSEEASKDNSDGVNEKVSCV

Compound: COc1ccc(CC2NCCc3c2[nH]c2c(C)c(C)ccc32)c(Br)c1OC (centres undefined)
- Ki [3]: 9 nM
- Ki [4]: 8 nM
- Ki [5]: 0.08 nM
- Kb [6]: 0.08 nM

Compound: CC1=NCCc2c1[nH]c1ccccc21
- Ki [7]: 1700 nM
- Ki [8]: 990 nM
- Ki [9]: > 10 µM

Compound: COc1ccc2c3c([nH]c2c1)C(C)NCC3 (centres undefined)
- IC50 [20]: > 100 µM
- Ki [4]: > 10000 nM

Other lines, results leading:

- IC50 [1]: 140 nM
- IC50 (Histone deacetylase 1): > 2500 nM
- IC50 (Histone deacetylase 2): > 2500 nM
- IC50 [2]: > 2500 nM
Compound: O=C(CCCN1CCC(N2CC(=O)N3C(Cc4c([nH]c5ccccc45)C3c3ccc4c(c3)OCO4)C2=O)CC1)NO (centres undefined)

- IC50 (Beta-secretase 1): 17 µM
Compound: OC[C@@H]1Cc2c([nH]c3ccccc23)CN1Cc1cn(C[C@@H]2Cc3c([nH]c4ccccc34)CN2)nn1

- Ki [10]: 3 nM
- Ki [11]: 24 nM
- Ki [12]: 31 nM
- Ki [13]: 240 nM
- Ki [14]: > 10 µM
- IC50 [15]: 3 nM
- IC50 [16]: 24 nM
- IC50 [17]: 31 nM
- IC50 [18]: 240 nM
- Ki [19]: > 10 µM
Compound: c1ccc2c(c1)[nH]c1cnc3c4ccncc4[nH]c3c12

- Ki [10]: 2 nM
- Ki [11]: 12 nM
- Ki [12]: 16 nM
- Ki [13]: 200 nM
- Ki [14]: > 10 µM
- IC50 [15]: 2 nM
- IC50 [16]: 12 nM
- IC50 [17]: 16 nM
- IC50 [18]: 200 nM
- Ki [19]: > 10 µM
Compound: c1ccc2c(c1)[nH]c1cnc3c4cccnc4[nH]c3c12
